Consider 12 compounds from PubChem BioAssay (NCI).

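Each compound was tested at five concentrations against cells in 96-well plates for 48 hours. Here, GI50 denotes the concentration required for 50% inhibition of growth. TGI marks complete inhibition of growth.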 A value given as a limit tells only on which side of the number the result lay.

Among the test systems are HCT-116 colon; NCI-H460 lung; HCT-15 colon; PC-3 prostate; NCI-H226 lung; BT-549 breast; MALME-3M melanoma; MDA-MB-231 breast; 786-0 renal; SNB-19 CNS.
Holding throughout (assay): NCI tumour cell line growth inhibition, 48 h

Consider `C=C(C)[C@@H]1CC[C@]2(CN)CC[C@]3(C)[C@H](CC[C@@H]4[C@@]5(C)CCC(N)[C@@](C)(CO)[C@@H]5CC[C@]43C)[C@@H]12` (stereo not given in full), for which the GI50 with HCT-116 colon was 1610 nM; in the assay on NCI-H460 lung, 1870 nM; in the assay on HCT-15 colon, 1650 nM; in the assay on PC-3 prostate, 1650 nM; in the assay with NCI-H226 lung it was 1940 nM; with BT-549 breast, 1660 nM. Besides, the GI50 is 1860 nM in the assay on MALME-3M melanoma, 1840 nM with MDA-MB-231 breast, 1.64 µM with 786-0 renal and 1870 nM in the assay on SNB-19 CNS. Moreover, the TGI was 3.05 µM in the assay with HCT-116 colon; 3.51 µM with NCI-H460 lung; 3.24 µM in the assay with HCT-15 colon; 3.1 µM in the assay on PC-3 prostate; 4.09 µM in the assay with NCI-H226 lung; 3.2 µM with BT-549 breast. The TGI turned out to be 3.38 µM with MALME-3M melanoma, 3.32 µM in the assay on MDA-MB-231 breast, 3.11 µM in the assay on 786-0 renal and 3.34 µM with SNB-19 CNS.

`Cc1cc(C)c(O)c(CNCCCNCc2cc(C)cc(C)c2O)c1`: the GI50 was 2990 nM in the assay with HCT-116 colon; 2130 nM in the assay on NCI-H460 lung; 2010 nM with HCT-15 colon; 6690 nM in the assay with PC-3 prostate; 6460 nM in the assay on NCI-H226 lung; 10900 nM in the assay with BT-549 breast. Moreover, the GI50 with MALME-3M melanoma is 1730 nM; in the assay on MDA-MB-231 breast it was 1930 nM; with 786-0 renal, 4.69 µM; in the assay on SNB-19 CNS, 3880 nM. The TGI in the assay on HCT-116 colon worked out at 9.49 µM; in the assay on NCI-H460 lung, 4.65 µM; in the assay on HCT-15 colon, 4.66 µM; in the assay with PC-3 prostate it was 19.8 µM; in the assay with NCI-H226 lung, 21.9 µM; in the assay with BT-549 breast, 24.5 µM. Moreover, the TGI in the assay on MALME-3M melanoma turned out to be 3.29 µM; in the assay with MDA-MB-231 breast, 4.45 µM; in the assay with 786-0 renal, 18.7 µM; with SNB-19 CNS, 15.1 µM.

Take `CN[C@H]1CC[C@]23C[C@]24CC[C@]2(C)[C@@H]([C@H](C)N(C)C)CC[C@@]2(C)[C@@H]4CC[C@H]3C1(C)C`: the TGI was 24 µM in the assay on HCT-116 colon; 37.2 µM in the assay on NCI-H460 lung; 25.8 µM in the assay with HCT-15 colon; 29 µM in the assay with PC-3 prostate; 34.9 µM in the assay with NCI-H226 lung; 31.9 µM in the assay on BT-549 breast. Further, the TGI with MALME-3M melanoma was 32.6 µM; in the assay with MDA-MB-231 breast it was 38.2 µM; in the assay with 786-0 renal, 19.8 µM; in the assay on SNB-19 CNS it was 43.3 µM.

Regarding `CN1CCN(c2ccc(-c3cccc(CN4CCOCC4)c3)cc2NC(=O)c2c[nH]c(=O)cc2C(F)(F)F)CC1`, the GI50 is 16400 nM in the assay on HCT-116 colon; 45800 nM with NCI-H460 lung; 50300 nM with HCT-15 colon; 32300 nM with PC-3 prostate; more than 100000 nM in the assay with NCI-H226 lung; 23700 nM in the assay with BT-549 breast. The GI50 was 21600 nM with MALME-3M melanoma, 16300 nM with MDA-MB-231 breast, 41.8 µM in the assay with 786-0 renal and 94700 nM in the assay on SNB-19 CNS. Further, the TGI in the assay on HCT-116 colon, in the assay with NCI-H460 lung, in the assay on HCT-15 colon, with PC-3 prostate, with NCI-H226 lung and with BT-549 breast was more than 100 µM in each case. Also, the TGI with MALME-3M melanoma is 51.4 µM; with MDA-MB-231 breast, 54.6 µM; in the assay on 786-0 renal, more than 100 µM; with SNB-19 CNS it was more than 100 µM.

With `N#CC(C(=O)O)C(c1c(Cl)cccc1Cl)C(C#N)C(=O)O` (stereo not given), the TGI with HCT-116 colon, with NCI-H460 lung, with HCT-15 colon, with PC-3 prostate, in the assay with NCI-H226 lung and with BT-549 breast was more than 100 µM in each case. Further, the TGI in the assay on MALME-3M melanoma, in the assay with MDA-MB-231 breast, in the assay with 786-0 renal and in the assay with SNB-19 CNS was more than 100 µM in each case.

Consider `COC(=O)[C@H](Cc1cn(C)cn1)NC(=O)[C@@H](NC(=O)Nc1cc(C(F)(F)F)cc(C(F)(F)F)c1)C(C)(C)C`, for which the GI50 with HCT-116 colon, in the assay on NCI-H460 lung, in the assay on HCT-15 colon, in the assay with PC-3 prostate, in the assay on NCI-H226 lung and in the assay on BT-549 breast was more than 10000 nM throughout. In addition, the GI50 is more than 10000 nM in the assay with MALME-3M melanoma, more than 10000 nM in the assay with MDA-MB-231 breast, more than 10 µM in the assay on 786-0 renal and more than 10000 nM with SNB-19 CNS. The TGI with HCT-116 colon, in the assay with NCI-H460 lung, in the assay with HCT-15 colon, with PC-3 prostate, in the assay with NCI-H226 lung and in the assay on BT-549 breast was more than 10 µM throughout. For the same compound, the TGI in the assay on MALME-3M melanoma, with MDA-MB-231 breast, in the assay with 786-0 renal and in the assay with SNB-19 CNS was more than 10 µM throughout.

As to `C[C@@H]1OC(=O)NN=C1c1ccc(-c2ccc(F)cc2)c(C(F)(F)F)c1`, the GI50 is 5270 nM in the assay with HCT-116 colon; 11700 nM with NCI-H460 lung; 4600 nM with HCT-15 colon; 10500 nM with PC-3 prostate; 2570 nM with NCI-H226 lung; 7300 nM in the assay with BT-549 breast. The GI50 with MALME-3M melanoma was 12500 nM; with MDA-MB-231 breast, 10100 nM; in the assay on 786-0 renal, 13.7 µM; with SNB-19 CNS, 11000 nM. Further, the TGI in the assay with HCT-116 colon came out at 20.6 µM; with NCI-H460 lung it was 25.6 µM; in the assay on HCT-15 colon, 17.9 µM; in the assay with PC-3 prostate it was 26.8 µM; with NCI-H226 lung, 20.6 µM; with BT-549 breast it was 21.2 µM. The TGI in the assay on MALME-3M melanoma worked out at 25.8 µM; in the assay with MDA-MB-231 breast it was 24.9 µM; with 786-0 renal, 30.3 µM; in the assay on SNB-19 CNS, 23.3 µM.

Consider `O=C1CCC(N2C(=O)c3cccc(NCCOCCOCCNC(=O)c4cc5c(o4)C(=O)c4ccccc4C5=O)c3C2=O)C(=O)N1` (stereo not given), for which the GI50 in the assay on HCT-116 colon was 2320 nM; with NCI-H460 lung it was 1970 nM; in the assay with HCT-15 colon it was 4080 nM; in the assay with PC-3 prostate, 2420 nM; in the assay with NCI-H226 lung, 1700 nM; with BT-549 breast, 1470 nM. The GI50 in the assay with MALME-3M melanoma was 184 nM; in the assay with MDA-MB-231 breast, 2290 nM; with 786-0 renal it was 3.14 µM; in the assay with SNB-19 CNS it was 1550 nM. The TGI came to 6.9 µM in the assay on HCT-116 colon; 3.87 µM with NCI-H460 lung; 19.2 µM with HCT-15 colon; 15.1 µM in the assay on PC-3 prostate; 3.8 µM with NCI-H226 lung; 2.84 µM in the assay on BT-549 breast. Moreover, the TGI was 0.448 µM in the assay on MALME-3M melanoma, 7.31 µM in the assay on MDA-MB-231 breast, 10.9 µM with 786-0 renal and 3.52 µM with SNB-19 CNS.

Consider `S=C1SCN(C2CCCCCCCCCCC2)CN1C1CCCCCCCCCCC1`, for which the TGI with HCT-116 colon, in the assay on NCI-H460 lung, in the assay on HCT-15 colon, in the assay with PC-3 prostate, with NCI-H226 lung and in the assay with BT-549 breast was more than 100 µM each time. For the same compound, the TGI in the assay with MALME-3M melanoma, in the assay on MDA-MB-231 breast, in the assay on 786-0 renal and in the assay on SNB-19 CNS was more than 100 µM throughout.

For `CN1CCN(Cc2ccc(NC(=O)c3cccc(C#Cc4c(N)ncc5ccc(F)cc45)c3)cc2C(F)(F)F)CC1`, the GI50 is 816 nM in the assay on HCT-116 colon; 885 nM with NCI-H460 lung; 621 nM in the assay with HCT-15 colon; 852 nM with PC-3 prostate; 265 nM with NCI-H226 lung; 2110 nM in the assay with BT-549 breast. Besides, the GI50 with MALME-3M melanoma is 569 nM; in the assay with MDA-MB-231 breast, 545 nM; in the assay with 786-0 renal it was 0.966 µM; with SNB-19 CNS it was 916 nM. Further, the TGI with HCT-116 colon is 1.61 µM; in the assay on NCI-H460 lung, 1.72 µM; with HCT-15 colon, 1.41 µM; in the assay on PC-3 prostate it was 1.86 µM; in the assay with NCI-H226 lung, 2.7 µM; in the assay with BT-549 breast, 6.66 µM. Besides, the TGI in the assay with MALME-3M melanoma amounted to 1.35 µM; in the assay on MDA-MB-231 breast it was 1.21 µM; in the assay with 786-0 renal it was 1.74 µM; in the assay on SNB-19 CNS, 1.65 µM.

Regarding `CC(C)Cc1ccc(C(C)/C=C2\CCC(CN3CCCCC3)C2=O)cc1` (stereo not given), the TGI with HCT-116 colon worked out at 12.7 µM; in the assay on NCI-H460 lung, 66.1 µM; in the assay with HCT-15 colon, 7.29 µM; in the assay with PC-3 prostate it was 17.5 µM; in the assay on NCI-H226 lung it was 32.2 µM; with BT-549 breast it was 34.4 µM. The TGI with MALME-3M melanoma was 31.1 µM; in the assay on MDA-MB-231 breast, 17.2 µM; in the assay with 786-0 renal, 3.38 µM; with SNB-19 CNS, 19.6 µM.

For `O=C1c2ccccc2-c2c1c1ccc([N+](=O)[O-])cc1c(=O)n2CCCn1ccnc1`, the GI50 was 76.3 nM in the assay on HCT-116 colon; less than 27.5 nM with NCI-H460 lung; 1060 nM with HCT-15 colon; 832 nM in the assay with PC-3 prostate; 18.3 nM in the assay on NCI-H226 lung; 35.9 nM in the assay on BT-549 breast. Moreover, the GI50 with MALME-3M melanoma was 148 nM; in the assay on MDA-MB-231 breast it was 150 nM; with 786-0 renal, 0.218 µM; with SNB-19 CNS it was 358 nM. Moreover, the TGI in the assay on HCT-116 colon came out at 0.652 µM; in the assay with NCI-H460 lung, 7.98 µM; in the assay with HCT-15 colon, 3.15 µM; with PC-3 prostate, 14.3 µM; with NCI-H226 lung, 0.0637 µM; in the assay with BT-549 breast, 0.96 µM. The TGI with MALME-3M melanoma is 1.97 µM; with MDA-MB-231 breast, 0.408 µM; in the assay with 786-0 renal it was 0.894 µM; in the assay with SNB-19 CNS it was more than 34.4 µM.
